Reference: US20250236608A1, “EGFR INHIBITORS” (Blueprint Medicines Corporation, priority 2022, published 2025)

Legend:
EGFR (d746-750) = EGFR (d746-750) (Homo sapiens (Human), UniProt P00533, DEL746-750); test: Biochemical EGFR inhibition assay, EGFR (d746-750); settings: Caliper mobility shift; 1.0 mM ATP or ATP Km; read-out: Enz EGFR_Exon19-del746-750 IC50
EGFR L858R = EGFR L858R (Homo sapiens (Human), UniProt P00533, L858R); test: Biochemical EGFR inhibition assay, EGFR L858R; settings: Caliper mobility shift; 1.0 mM ATP or ATP Km; read-out: Enz EGFR_L858R IC50
[1] = molecular target: pEGFR (Tyr1068) in PC-9 cells (Ex19Del) (Homo sapiens (Human), UniProt P00533, DEL746-750); test: PC-9 pEGFR AlphaLISA assay; format: cell-based; settings: 4 hours incubation, p-EGFR (Tyr1068) AlphaLISA, read-out: Ext pEGFR_PC-9 Ex19Del IC50
Method in brief: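 Cells seeded in phenol-free DMEM with 10% FBS adhered overnight at 37° C./5% CO2, then were exposed for 4 hours to a 4-fold, 10-point compound dilution series. After lysis, phospho-EGFR was read by AlphaLISA SureFire Ultra, and IC50 was fitted from percent inhibition versus log concentration.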

IC50 (EGFR (d746-750))	IC50 (EGFR L858R)	IC50 [1]	Compound
47.3 nM	70.7 nM	636 nM	[2H]C([2H])([2H])n1ncc(-c2ncnc3cc(OC)c(NC(=O)C4(C(F)(F)F)CC4)nc23)c1-c1ccccc1 [Example 492]
0.4 nM	1.3 nM	2.7 nM	CCOc1cc2ncnc(-c3cn(C)nc3-c3ccc(F)cc3)c2nc1NC(=O)[C@]12C[C@H]1CN(C)C2 (single isomer, unassigned) [Example 376, (1R,5R)—N-(7-ethoxy-4-(3-(4-fluorophenyl)-1-methyl-1H-pyrazol-4-yl)pyrido[3,2-d]pyrimidin-6-yl)-3-methyl-3-azabicyclo[3.1.0]hexane-1-carboxamide or (1S,5S)—N-(7-ethoxy-4-(3-(4-fluorophenyl)-1-methyl-1H-pyrazol-4-yl)pyrido[3,2-d]pyrimidin-6-yl)-3-methyl-3-azabicyclo[3.1.0]hexane-1-carboxamide]
0.7 nM	1.5 nM	0.7 nM	COc1cc2ncnc(-c3cn(CC4CC4)nc3-c3ccccc3)c2nc1NC(=O)[C@@]12C[C@@H]1CN(C)C2 (single isomer, unassigned) [Example 408, (1R,5R)—N-(4-(1-(cyclopropylmethyl)-3-phenyl-1H-pyrazol-4-yl)-7-methoxypyrido[3,2-d]pyrimidin-6-yl)-3-methyl-3-azabicyclo[3.1.0]hexane-1-carboxamide or (1S,5S)—N-(4-(1-(cyclopropylmethyl)-3-phenyl-1H-pyrazol-4-yl)-7-methoxypyrido[3,2-d]pyrimidin-6-yl)-3-methyl-3-azabicyclo[3.1.0]hexane-1-carboxamide]
3.2 nM	145 nM	9.6 nM	COc1cc2ncnc(-c3cn(C)nc3-c3c(F)cccc3F)c2cc1NC(=O)[C@@]12C[C@@H]1CN(C)C2 [Example 292, (1S,5S)—N-(4-(3-(2,6-difluorophenyl)-1-methyl-1H-pyrazol-4-yl)-7-methoxyquinazolin-6-yl)-3-methyl-3-azabicyclo[3.1.0]hexane-1-carboxamide]
3.4 nM	277 nM	8.9 nM	COc1cc2ncnc(-c3cn(C)nc3-c3c(F)cccc3F)c2cc1NC(=O)[C@]12C[C@H]1CN(C)C2 [Example 293, (1R,5R)—N-(4-(3-(2,6-difluorophenyl)-1-methyl-1H-pyrazol-4-yl)-7-methoxyquinazolin-6-yl)-3-methyl-3-azabicyclo[3.1.0]hexane-1-carboxamide]
1.4 nM	2.2 nM	2.3 nM	COc1cc2ncnc(-c3cn(C)nc3-c3ccccc3)c2cc1NC(=O)C[C@@H]1CCCO1 [Example 281, (S)—N-(7-methoxy-4-(1-methyl-3-phenyl-1H-pyrazol-4-yl)quinazolin-6-yl)-2-(tetrahydrofuran-2-yl) acetamide]
1.1 nM	2.8 nM	1.3 nM	COc1cc2ncnc(-c3cn(C)nc3-c3ccc(F)cc3)c2nc1NC(=O)[C@@]12CN(C)C[C@@H]1C2(F)F (single isomer, unassigned) [Example 426, (1S,5R)-6,6-difluoro-N-(4-(3-(4-fluorophenyl)-1-methyl-1H-pyrazol-4-yl)-7-methoxypyrido[3,2-d]pyrimidin-6-yl)-3-methyl-3-azabicyclo[3.1.0]hexane-1-carboxamide or (1R,5S)-6,6-difluoro-N-(4-(3-(4-fluorophenyl)-1-methyl-1H-pyrazol-4-yl)-7-methoxypyrido[3,2-d]pyrimidin-6-yl)-3-methyl-3-azabicyclo[3.1.0]hexane-1-carboxamide]
0.7 nM	5.9 nM	3.6 nM	COc1cc2ncnc(-c3cn(C)nc3-c3ccccc3)c2nc1NC(=O)C12CC(N(C)C)(C1)C2 [Example 404, 3-(dimethylamino)-N-(7-methoxy-4-(1-methyl-3-phenyl-1H-pyrazol-4-yl)pyrido[3,2-d]pyrimidin-6-yl)bicyclo[1.1.1]pentane-1-carboxamide]
0.8 nM	4.9 nM	3.5 nM	Cn1cc(-c2ncnc3cc(OC(F)F)c(NC(=O)C4(C(F)(F)F)CC4)nc23)c(-c2ccccc2)n1 [Example 465, N-(7-(difluoromethoxy)-4-(1-methyl-3-phenyl-1H-pyrazol-4-yl)pyrido[3,2-d]pyrimidin-6-yl)-1-(trifluoromethyl)cyclopropane-1-carboxamide]
1.3 nM	2.8 nM	6.1 nM	COc1cc2ncnc(-c3cn(C)nc3-c3ccccc3)c2cc1NC(=O)[C@@]12COC[C@@H]1C2 (single isomer, unassigned) [Example 261, (1R,5R)—N-(7-methoxy-4-(1-methyl-3-phenyl-1H-pyrazol-4-yl)quinazolin-6-yl)-5-methyl-3-oxabicyclo[3.1.0]hexane-1-carboxamide or (1S,5S)—N-(7-methoxy-4-(1-methyl-3-phenyl-1H-pyrazol-4-yl)quinazolin-6-yl)-3-oxabicyclo[3.1.0]hexane-1-carboxamide]
78 nM	70.5 nM	953 nM	Cc1nn(C)c(-c2ccccc2)c1-c1ncnc2cc(-c3cnn(C)c3)ccc12 [Example 481, 4-(1,3-dimethyl-5-phenyl-1H-pyrazol-4-yl)-7-(1-methyl-1H-pyrazol-4-yl)quinazoline]

The remaining lines, values behind:

Compound	IC50 (EGFR (d746-750))	IC50 (EGFR L858R)	IC50 [1]
CC(C)Oc1cc2ncnc(-c3cn(C)nc3-c3ccccc3)c2cc1[C@@H](C)O (single isomer, unassigned) [Example 114, (R)-1-(7-isopropoxy-4-(1-methyl-3-phenyl-1H-pyrazol-4-yl)quinazolin-6-yl)ethan-1-ol or (S)-1-(7-isopropoxy-4-(1-methyl-3-phenyl-1H-pyrazol-4-yl)quinazolin-6-yl)ethan-1-ol]	2.3 nM	2.9 nM	28.9 nM
7-methoxy-6-(2-methyl-2H-indazol-4-yl)-4-(1-methyl-3-phenyl-1H-pyrazol-4-yl)pyrido[3,2-d]pyrimidine [Example 155]	2 nM	7.3 nM	5.1 nM
COc1cc2ncnc(-c3cn(C)nc3-c3ccccc3)c2cc1NC(=O)c1ccnc(C)c1 [Example 194, N-(7-methoxy-4-(1-methyl-3-phenyl-1H-pyrazol-4-yl)quinazolin-6-yl)-2-methylisonicotinamide]	0.7 nM	1.4 nM	1.7 nM
COc1cc2ncnc(-c3cn(C)nc3-c3ccccc3)c2cc1-c1cccc(C(=O)NC2CC2)c1 [Example 142, N-cyclopropyl-3-(7-methoxy-4-(1-methyl-3-phenyl-1H-pyrazol-4-yl)quinazolin-6-yl)benzamide]	2.8 nM	3.2 nM	7.1 nM
COc1cc2ncnc(-c3cn(C)nc3-c3ccccc3)c2cc1NC(=O)c1cccc(F)c1Cl [Example 199, 2-chloro-3-fluoro-N-(7-methoxy-4-(1-methyl-3-phenyl-1H-pyrazol-4-yl)quinazolin-6-yl)benzamide]	1.1 nM	1.6 nM	1.9 nM
COc1cc2ncnc(-c3cn(C)nc3-c3ccccc3)c2nc1O[C@H](C)c1cnnn1C [Example 41, (R)-7-methoxy-6-(1-(1-methyl-1H-1,2,3-triazol-5-yl)ethoxy)-4-(1-methyl-3-phenyl-1H-pyrazol-4-yl)pyrido[3,2-d]pyrimidine]	4.1 nM	8.3 nM	9.2 nM
[2H]C([2H])([2H])N1CCN(C(=O)Nc2cc3c(-c4cn(C)nc4-c4ccccc4)ncnc3cc2OC)[C@@H](C)C1 [Example 181, (S)—N-(7-methoxy-4-(1-methyl-3-phenyl-1H-pyrazol-4-yl)quinazolin-6-yl)-2-methyl-4-(methyl-d3) piperazine-1-carboxamide]	2.7 nM	4.3 nM	4.5 nM
COc1cc2ncnc(-c3cn(CC(F)F)nc3-c3ccccc3)c2cc1NC(=O)c1cncs1 [Example 213, N-(4-(1-(2,2-difluoroethyl)-3-phenyl-1H-pyrazol-4-yl)-7-methoxyquinazolin-6-yl)thiazole-5-carboxamide]	0.6 nM	0.9 nM	0.6 nM
COc1cc2ncnc(-c3cn(C)nc3-c3ccccc3)c2cc1NC(=O)[C@]12COC[C@H]1C2 (single isomer, unassigned) [Example 260, (1S,5S)—N-(7-methoxy-4-(1-methyl-3-phenyl-1H-pyrazol-4-yl)quinazolin-6-yl)-5-methyl-3-oxabicyclo[3.1.0]hexane-1-carboxamide or (1R,5R)—N-(7-methoxy-4-(1-methyl-3-phenyl-1H-pyrazol-4-yl)quinazolin-6-yl)-3-oxabicyclo[3.1.0]hexane-1-carboxamide]	1.2 nM	6.8 nM	3.2 nM
COc1cc2ncnc(-c3cn(C)nc3-c3ccccc3)c2cc1OC1COCCOC1 [Example 21, 6-((1,4-dioxepan-6-yl)oxy)-7-methoxy-4-(1-methyl-3-phenyl-1H-pyrazol-4-yl)quinazoline]	3 nM	7.4 nM	10.5 nM
COc1cc2ncnc(-c3cn(C)nc3-c3ccccc3)c2cc1NC(=O)C1(C)CCCO1 (stereo not drawn) [Example 224, N-(7-methoxy-4-(1-methyl-3-phenyl-1H-pyrazol-4-yl)quinazolin-6-yl)-2-methyltetrahydrofuran-2-carboxamide]	3 nM	5.1 nM	3.9 nM
COc1cc2ncnc(-c3cn(CC(F)F)nc3-c3ccccc3)c2cc1OC [Example 15, 4-(1-(2,2-difluoroethyl)-3-phenyl-1H-pyrazol-4-yl)-6,7-dimethoxyquinazoline]	0.8 nM	1.5 nM	1.5 nM
